Data published in ChEMBL document CHEMBL1201862, “PubChem BioAssay data set” (2004).
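Step 1: Grow cells in 96-well plates. Step 2: Expose to compound for 48 hours at 5 concentrations. Step 3: Interpolate endpoints linearly; if unreached, use highest concentration. The concentration for 50% growth inhibition is given as GI50.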 Activity calls are given as the source filed them. No stated cut-off is given here; in the data, active = GI50 up to about 1.1 µM and inactive = higher.

Legend:
Experiment in all cases: inhibition of tumour cell growth, NCI panel, 48 h
[1] = tested on: DLD-1
[2] = tested on: DMS-114
[3] = tested on: HOP-18
[4] = tested on: KM-20L2
[5] = tested on: LXFL 529
[6] = tested on: M19-MEL
[7] = tested on: RXF 631
[8] = tested on: XF498
[9] = tested on: MDA-N

SMILES: Nc1nc(-c2ccccc2)cc(-c2ccccc2O)n1
- GI50 [1]: 23.9 µM (inactive)
- GI50 [2]: 35.2 µM (inactive)
- GI50 [3]: > 100 µM (inactive)
- GI50 [4]: 30.2 µM (inactive)
- GI50 [5]: 30.8 µM (inactive)
- GI50 [6]: 43.1 µM (inactive)
- GI50 [7]: 34.1 µM (inactive)
- GI50 [8]: > 100 µM (inactive)

SMILES: CCCC/C=C1/CCC(CN(C)C)C1=O (stereo not given)
- GI50 [1]: 0.863 µM (active)
- GI50 [2]: 1.29 µM (inactive)
- GI50 [3]: 2.22 µM (inactive)
- GI50 [4]: 2.54 µM (inactive)
- GI50 [5]: 0.625 µM (active)
- GI50 [6]: 1.41 µM (inactive)
- GI50 [9]: 2.42 µM (inactive)
- GI50 [7]: 1.65 µM (inactive)

SMILES: CC1CCCP(=O)(c2ccccc2)CCC1 (stereo not given)
- GI50 [1]: > 100 µM (inactive)
- GI50 [2]: > 100 µM (inactive)
- GI50 [3]: 69 µM (inactive)
- GI50 [4]: > 100 µM (inactive)
- GI50 [5]: > 100 µM (inactive)
- GI50 [6]: > 100 µM (inactive)
- GI50 [7]: > 100 µM (inactive)
- GI50 [8]: > 100 µM (inactive)

SMILES: O=C(Cc1nc2ccccc2s1)C(=O)Nc1cccc(Cl)c1
- GI50 [1]: > 100 µM (inactive)
- GI50 [2]: > 100 µM (inactive)
- GI50 [4]: > 100 µM (inactive)
- GI50 [5]: > 100 µM (inactive)
- GI50 [6]: > 100 µM (inactive)
- GI50 [7]: > 100 µM (inactive)
- GI50 [8]: > 100 µM (inactive)

SMILES: COc1cccc(NC(=O)CC(=O)N2NC(C)C(/N=N/c3cccc(C(=O)O)c3)C2=O)c1 (stereo not given)
- GI50 [1]: > 100 µM (inactive)
- GI50 [2]: > 100 µM (inactive)
- GI50 [3]: 17.9 µM (inactive)
- GI50 [4]: > 100 µM (inactive)
- GI50 [5]: > 100 µM (inactive)
- GI50 [6]: > 100 µM (inactive)
- GI50 [7]: > 100 µM (inactive)

SMILES: CCOC(=O)/C(C(C)=O)=C1/N[C@H](C(=O)OCC)CS1
- GI50 [1]: > 100 µM (inactive)
- GI50 [3]: > 100 µM (inactive)
- GI50 [4]: > 100 µM (inactive)
- GI50 [5]: > 100 µM (inactive)
- GI50 [6]: > 100 µM (inactive)
- GI50 [7]: > 100 µM (inactive)
- GI50 [8]: > 100 µM (inactive)

SMILES: CC1=CC2CC(C)=C(CC[C@]3(C)CC[C@H]([C@@H](C)C(=O)O)OO3)C(C)(C)C2CC1 (stereo not given in full)
- GI50 [1]: 0.201 µM (active)
- GI50 [2]: 0.376 µM (active)
- GI50 [3]: 0.158 µM (active)
- GI50 [4]: 1.29 µM (inactive)
- GI50 [5]: 0.193 µM (active)
- GI50 [6]: 1.63 µM (inactive)
- GI50 [7]: 1.48 µM (inactive)

SMILES: O=S1(=O)CCC2=CC(C(F)(F)F)=CC(C(F)(F)F)=CN21
- GI50 [1]: 0.339 µM (active)
- GI50 [2]: 1.37 µM (inactive)
- GI50 [3]: 3.35 µM (inactive)
- GI50 [4]: 2.11 µM (inactive)
- GI50 [5]: 0.435 µM (active)
- GI50 [6]: 1.41 µM (inactive)
- GI50 [9]: 0.792 µM (active)
- GI50 [7]: 1.95 µM (inactive)
- GI50 [8]: 1.79 µM (inactive)

SMILES: CC1(C)N=C(c2ccccn2)C(c2ccccn2)=NC1(C)C
- GI50 [1]: > 100 µM (inactive)
- GI50 [2]: > 100 µM (inactive)
- GI50 [4]: > 100 µM (inactive)
- GI50 [5]: > 100 µM (inactive)
- GI50 [6]: > 100 µM (inactive)
- GI50 [7]: > 100 µM (inactive)
- GI50 [8]: > 100 µM (inactive)

SMILES: N#CC(C(=O)/C(=N/NC(=O)c1ccccc1O)C(C#N)c1ccc(Br)cc1)c1ccc(Br)cc1 (stereo not given)
- GI50 [1]: 4.79 µM (inactive)
- GI50 [2]: 15.7 µM (inactive)
- GI50 [3]: 8.41 µM (inactive)
- GI50 [4]: 15.4 µM (inactive)
- GI50 [5]: 3.32 µM (inactive)
- GI50 [6]: 11.7 µM (inactive)
- GI50 [7]: 14.1 µM (inactive)
- GI50 [8]: 13.7 µM (inactive)

SMILES: CCOC(=N)CC(=O)Nc1cccc(Cl)c1
- GI50 [1]: > 100 µM (inactive)
- GI50 [4]: > 100 µM (inactive)
- GI50 [5]: > 100 µM (inactive)
- GI50 [6]: > 100 µM (inactive)
- GI50 [7]: > 100 µM (inactive)
- GI50 [8]: > 100 µM (inactive)

SMILES: COc1ccccc1NC(=O)CC(=O)N1N=C(c2ccccc2)C(/N=N/c2ccc(Cl)cc2)C1=O (stereo not given)
- GI50 [1]: 49.7 µM (inactive)
- GI50 [2]: 70.1 µM (inactive)
- GI50 [4]: 71.8 µM (inactive)
- GI50 [5]: 47.6 µM (inactive)
- GI50 [6]: 57.1 µM (inactive)
- GI50 [7]: 44.1 µM (inactive)
- GI50 [8]: 38.5 µM (inactive)

SMILES: O=C1C[C@H]2CCCN2[C@@H](c2ccccc2)C1
- GI50 [3]: > 100 µM (inactive)
- GI50 [4]: > 100 µM (inactive)
- GI50 [5]: > 100 µM (inactive)
- GI50 [6]: > 100 µM (inactive)
- GI50 [7]: > 100 µM (inactive)
- GI50 [8]: > 100 µM (inactive)

SMILES: COc1cccc2nc3c(C(=O)NCCN(C)C)cccc3nc12
- GI50 [1]: 5.68 µM (inactive)
- GI50 [2]: 8.07 µM (inactive)
- GI50 [3]: 29.5 µM (inactive)
- GI50 [4]: 8.38 µM (inactive)
- GI50 [5]: 11.1 µM (inactive)
- GI50 [6]: 8.07 µM (inactive)
- GI50 [7]: 10.8 µM (inactive)
- GI50 [8]: 0.986 µM (active)

SMILES: [N-]=[N+]=C1C(=O)C2CC3CC1CC2C3 (stereo not given)
- GI50 [1]: > 100 µM (inactive)
- GI50 [2]: > 100 µM (inactive)
- GI50 [3]: > 100 µM (inactive)
- GI50 [4]: > 100 µM (inactive)
- GI50 [5]: > 100 µM (inactive)
- GI50 [6]: > 100 µM (inactive)
- GI50 [7]: > 100 µM (inactive)

SMILES: COc1cc2c(cn1)[nH]c1ccccc12
- GI50 [1]: > 100 µM (inactive)
- GI50 [2]: 81.5 µM (inactive)
- GI50 [3]: > 100 µM (inactive)
- GI50 [4]: > 100 µM (inactive)
- GI50 [5]: 72.3 µM (inactive)
- GI50 [7]: > 100 µM (inactive)
- GI50 [8]: 35.8 µM (inactive)

SMILES: COc1ccc(/C=C(/C(=O)O)c2cc(OC)c(OC)c(OC)c2)cc1
- GI50 [1]: 41.2 µM (inactive)
- GI50 [2]: 40.2 µM (inactive)
- GI50 [4]: 22.2 µM (inactive)
- GI50 [5]: 69.2 µM (inactive)
- GI50 [6]: 79.8 µM (inactive)
- GI50 [7]: 46.8 µM (inactive)

SMILES: CC[C@@]1(O)C(=O)OCc2c1cc1n(c2=O)Cc2cc3cc(O)ccc3nc2-1 [HYDROXYCAMPTOTHECIN]
- GI50 [1]: 1.2 µM (inactive)
- GI50 [2]: 0.0136 µM (active)
- GI50 [3]: 0.109 µM (active)
- GI50 [4]: 0.0834 µM (active)
- GI50 [5]: 0.15 µM (active)
- GI50 [6]: 0.0513 µM (active)
- GI50 [8]: 0.0262 µM (active)
